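A five-concentration, 48-hour dose response in 96-well plates underlies each endpoint, interpolated linearly between surrounding concentrations. Here, GI50 denotes the concentration required for 50% inhibition of growth.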 Activity calls are given as the source filed them. Cut-off read from the data, not from the text of the source: active = GI50 up to about 1.1 µM and inactive = higher.
What was measured:
Assay in all cases: NCI tumour cell line growth inhibition, 48 h
U-251 = tested on: U-251
A549 = tested on: A549
IGROV-1 = tested on: IGROV-1
LOX IMVI = tested on: LOX IMVI
OVCAR-3 = tested on: OVCAR-3
UACC-62 = tested on: UACC-62
TK-10 = tested on: TK-10
RXF 393 = tested on: RXF 393
A498 = tested on: A498
COLO 205 = tested on: COLO 205
NCI/ADR-RES = tested on: NCI/ADR-RES
SN12C = tested on: SN12C
HT-29 = tested on: HT-29
CCRF-CEM = tested on: CCRF-CEM
PC-3 = tested on: PC-3
SNB-75 = tested on: SNB-75
EKVX = tested on: EKVX
KM12 = tested on: KM12
SK-MEL-5 = tested on: SK-MEL-5
MDA-N = tested on: MDA-N

Measured: GI50

Nc1cccc(CCN2CCN(CCCc3ccccc3)CC2)c1
inactive: U-251 46.2 µM | A549 34.4 µM | IGROV-1 37.3 µM | LOX IMVI 18.1 µM | OVCAR-3 19.4 µM | UACC-62 21.8 µM | TK-10 74.1 µM | RXF 393 21.2 µM | A498 47.5 µM | COLO 205 19.5 µM | NCI/ADR-RES > 100 µM | SN12C 95.3 µM | HT-29 13.7 µM | CCRF-CEM 25.8 µM | PC-3 70.1 µM | SNB-75 > 100 µM | EKVX > 100 µM | KM12 24.9 µM | SK-MEL-5 20.1 µM

CCOC(=O)C1=C(C)N(c2ccc(Cl)cc2)C2(O)C=CC(O)=C3C(=O)c4ccccc4C(=O)C312 (stereo unspecified)
inactive: MDA-N 4.7 µM | U-251 3.59 µM | A549 4.56 µM | IGROV-1 3.94 µM | LOX IMVI 3.72 µM | OVCAR-3 1.91 µM | UACC-62 3.44 µM | TK-10 1.71 µM | A498 15.2 µM | COLO 205 3.72 µM | NCI/ADR-RES 2.49 µM | SN12C 4.16 µM | CCRF-CEM 2.34 µM | PC-3 3.34 µM | EKVX 4.36 µM | KM12 6.97 µM | SK-MEL-5 7.96 µM

CN1C(=O)C(C(N)=O)C2CC1(C)Oc1ccccc12 (stereo unspecified)
inactive: U-251 > 100 µM | A549 > 100 µM | IGROV-1 > 100 µM | LOX IMVI > 100 µM | OVCAR-3 > 100 µM | UACC-62 > 100 µM | RXF 393 > 100 µM | A498 > 100 µM | COLO 205 > 100 µM | NCI/ADR-RES > 100 µM | SN12C > 100 µM | HT-29 > 100 µM | CCRF-CEM > 100 µM | PC-3 > 100 µM | SNB-75 > 100 µM | EKVX > 100 µM | KM12 > 100 µM | SK-MEL-5 > 100 µM

Oc1ccc(C[C@@H]2CN[C@H](Cc3ccc(O)c(Br)c3)CN2)cc1
inactive: U-251 > 100 µM | A549 > 100 µM | IGROV-1 > 100 µM | OVCAR-3 > 100 µM | UACC-62 > 100 µM | TK-10 > 100 µM | RXF 393 84.3 µM | A498 > 100 µM | COLO 205 > 100 µM | NCI/ADR-RES > 100 µM | SN12C > 100 µM | HT-29 > 100 µM | CCRF-CEM > 100 µM | PC-3 > 100 µM | SNB-75 > 100 µM | EKVX > 100 µM | KM12 > 100 µM

From ChEMBL document CHEMBL1201862, “PubChem BioAssay data set” (2004)
